Assay results as given in patent US11180811B2, “Molecular signatures of conditions associated with longevity” (The Brigham and Women's Hospital, Inc., priority 2014, dated 2021).

How the values were obtained:
[1] = tested on: Kidney longevity gene expression signature; assay: Compounds that shift gene expression in the direction of longevity (Table 6), kidney
Excerpt: (§1) The methods, assays, and systems described herein can be useful in a number of areas, including the discovery and validation of new targets for reducing rate of aging, extending lifespan, reducing incidence and delaying onset of disease and improving overall health of aging populations. Furthermore, the invention can facilitate the discovery and development of drugs, biologicals and treatment regimens based on the above that favorably intervene in the aging process. For example, the gene expression signatures described herein can be used to choose target gene products in a therapeutic protocol, to elaborate the biological function of the target gene product in the aging process, and to identify compounds that alleviate deterioration associated with aging by modulating the activity of target gene products. For example, several compounds that shift gene expression in the direction of longevity have been identified or validated using the assays or methods described herein (Table 6).
(§2) In Table 6, several compounds that shift gene expression in the direction of longevity have been identified or validated.

[2] = tested on: Brain longevity gene expression signature; assay: Compounds that shift gene expression in the direction of longevity (Table 6), brain
Excerpt: as §1, §2

mice = details: elevated growth hormone treatment during development (Panici et al., 2010); cited from earlier work
[3] = tested on: Liver longevity gene expression signature; assay: Compounds that shift gene expression in the direction of longevity (Table 6), liver
Excerpt: as §1, §2

## CCc1c2c(nc3ccc(OC(=O)N4CCC(N5CCCCC5)CC4)cc13)-c1cc3c(c(=O)n1C2)COC(=O)[C@]3(O)CC [Irinotecan]
[1]
  Direction of lifespan associated with the compound's shift of gene expression (Increased lifespan / Decreased lifespan): Increased
[2]
  Direction of lifespan associated with the compound's shift of gene expression (Increased lifespan / Decreased lifespan): Increased

## growth hormone
mice
  Effect on lifespan: shortens lifespan

## C[C@H]1O[C@@H](O[C@H]2CC[C@]3(C=O)[C@H]4CC[C@]5(C)[C@@H](C6=CC(=O)OC6)CC[C@]5(O)[C@@H]4CC[C@]3(O)C2)C[C@H](O)[C@@H]1O [Helveticoside]
[3]
  Direction of lifespan associated with the compound's shift of gene expression (Increased lifespan / Decreased lifespan): Increased

## CCCCC/C=C/C=C1/C(=O)C=C[C@@H]1C/C=C\CCCC(=O)O [15Δ prostaglandin J2]
[1]
  Direction of lifespan associated with the compound's shift of gene expression (Increased lifespan / Decreased lifespan): Decreased
[3]
  Direction of lifespan associated with the compound's shift of gene expression (Increased lifespan / Decreased lifespan): Decreased
[2]
  Direction of lifespan associated with the compound's shift of gene expression (Increased lifespan / Decreased lifespan): Decreased

## NC12CC3CC(CC(C3)C1)C2 [Amantadine]
[2]
  Direction of lifespan associated with the compound's shift of gene expression (Increased lifespan / Decreased lifespan): Increased

## O[C@H]1[C@H]2c3cc4c(cc3CN3CCC(=C[C@@H]1O)[C@H]23)OCO4 [Lycorine]
[1]
  Direction of lifespan associated with the compound's shift of gene expression (Increased lifespan / Decreased lifespan): Decreased

## CO[C@H]1/C=C\C=C(/C)C(=O)NC2=CC(=O)C(NCCN(C)C)=C(C[C@@H](C)C[C@H](OC)[C@H](O)[C@@H](C)/C=C(\C)[C@@H]1OC(N)=O)C2=O [Alvespimycin]
[2]
  Direction of lifespan associated with the compound's shift of gene expression (Increased lifespan / Decreased lifespan): Decreased

## Oc1ccc(C=Cc2cc(O)cc(O)c2)cc1 [Resveratrol]
[3]
  Direction of lifespan associated with the compound's shift of gene expression (Increased lifespan / Decreased lifespan): Increased

## CN(C)CCOC(C)(c1ccccc1)c1ccccn1 (centres unmarked) [Doxylamine]
[3]
  Direction of lifespan associated with the compound's shift of gene expression (Increased lifespan / Decreased lifespan): Decreased

## Artemizole
[3]
  Direction of lifespan associated with the compound's shift of gene expression (Increased lifespan / Decreased lifespan): Increased

## C[C@@H]1C[C@H]2O[C@@H]2/C=C\C=C\C(=O)Cc2c(Cl)c(O)cc(O)c2C(=O)O1 [Monorden]
[3]
  Direction of lifespan associated with the compound's shift of gene expression (Increased lifespan / Decreased lifespan): Decreased
